In US9796711B2, “Substituted pyrazolo[3,4-b]pyridin-6-carboxylic acids and method of use” (AbbVie S.àr.l., priority 2015, dated 2017):

Assays:
ΔF508-CFTR [1] = target: T1, ΔF508-CFTR (Homo sapiens, UniProt P13569, DEL508-508); assay: CFTR cell surface levels using HRP-tagged ΔF508-CFTR expressing CFBE cells, intrinsic corrector capacity; type: cell-based; details: for EC50: read-out: EC50
T1 construct: host or cells: CFBE41o-, doxycycline-inducible
How it was run: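 Here the cells express ΔF508-CFTR with horseradish peroxidase inserted in extracellular loop 4, so only rescued channel at the surface gives luminescent signal. Compounds act on their own, 20 h at the reduced temperature of 33 °C; values are percent activity relative to DMSO and a 3 μM corrector.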

ΔF508-CFTR [2] = target: T1, ΔF508-CFTR; assay: CFTR cell surface levels using HRP-tagged ΔF508-CFTR expressing CFBE cells, in the presence of a co-corrector; type: cell-based; details: HRP-tagged ΔF508-CFTR expressing CFBE cells, in the presence of 3 μM co-corrector; for EC50: read-out: EC50
How it was run: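 Cells were seeded with 0.5 μg/mL doxycycline and held 68 h at 37 °C. Test compounds plus 3 μM co-corrector (final 0.1% DMSO) were then added for 20 h at 33 °C. Washed cells received HRP substrate, and luminescence was normalized between DMSO and 3 μM co-corrector controls.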

[3] = HRP-tagged ΔF508-CFTR expressing CFBE cells, intrinsic corrector capacity (no co-corrector), 33° C., 20 hours
[4] = HRP-tagged ΔF508-CFTR CFBE cells, compound alone (intrinsic corrector capacity), 20 hours at 33° C.

T1 sequence (P13569 with tags, fused parts or gaps DEL508-508): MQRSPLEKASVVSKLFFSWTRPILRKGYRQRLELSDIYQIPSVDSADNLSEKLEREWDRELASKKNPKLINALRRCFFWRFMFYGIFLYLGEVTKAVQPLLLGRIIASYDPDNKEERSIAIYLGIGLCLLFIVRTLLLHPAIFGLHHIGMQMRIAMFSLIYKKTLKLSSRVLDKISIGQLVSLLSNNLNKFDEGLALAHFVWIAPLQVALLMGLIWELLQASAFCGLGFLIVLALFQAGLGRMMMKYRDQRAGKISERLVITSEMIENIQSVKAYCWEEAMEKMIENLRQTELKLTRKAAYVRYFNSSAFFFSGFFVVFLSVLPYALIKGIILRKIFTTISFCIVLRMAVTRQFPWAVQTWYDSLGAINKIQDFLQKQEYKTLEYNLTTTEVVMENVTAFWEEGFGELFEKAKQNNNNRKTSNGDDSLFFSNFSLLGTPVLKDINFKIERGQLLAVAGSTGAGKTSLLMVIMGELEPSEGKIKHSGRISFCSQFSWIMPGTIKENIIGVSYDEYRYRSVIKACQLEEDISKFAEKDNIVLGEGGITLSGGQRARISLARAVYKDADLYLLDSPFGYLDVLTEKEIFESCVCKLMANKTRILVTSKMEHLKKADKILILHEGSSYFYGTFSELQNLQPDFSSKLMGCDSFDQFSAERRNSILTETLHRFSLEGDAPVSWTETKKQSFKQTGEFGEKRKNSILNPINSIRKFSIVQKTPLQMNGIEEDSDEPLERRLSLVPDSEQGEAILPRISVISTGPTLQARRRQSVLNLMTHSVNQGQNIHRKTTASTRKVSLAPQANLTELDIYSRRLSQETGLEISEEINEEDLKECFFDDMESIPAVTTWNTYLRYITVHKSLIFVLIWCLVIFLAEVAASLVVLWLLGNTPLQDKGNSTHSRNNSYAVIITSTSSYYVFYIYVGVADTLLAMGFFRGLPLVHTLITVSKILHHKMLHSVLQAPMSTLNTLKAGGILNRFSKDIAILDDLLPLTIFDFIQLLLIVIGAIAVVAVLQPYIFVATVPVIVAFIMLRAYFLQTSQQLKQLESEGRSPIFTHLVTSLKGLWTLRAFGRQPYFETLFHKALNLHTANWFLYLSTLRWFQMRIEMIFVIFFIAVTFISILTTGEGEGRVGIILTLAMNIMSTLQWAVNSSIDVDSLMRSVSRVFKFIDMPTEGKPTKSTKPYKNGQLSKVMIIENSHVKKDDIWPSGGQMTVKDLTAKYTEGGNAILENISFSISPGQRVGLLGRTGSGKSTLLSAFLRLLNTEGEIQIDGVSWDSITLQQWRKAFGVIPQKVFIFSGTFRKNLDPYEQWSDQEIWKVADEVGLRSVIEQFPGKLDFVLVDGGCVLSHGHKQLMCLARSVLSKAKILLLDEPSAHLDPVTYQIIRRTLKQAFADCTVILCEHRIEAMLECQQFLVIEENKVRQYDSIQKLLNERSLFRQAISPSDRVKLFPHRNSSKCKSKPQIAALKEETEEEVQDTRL

SMILES: COCCN(C)C1CCN(c2cc(C(=O)O)nc3c2c(C2CCC2)nn3-c2ccc(F)cc2)CC1 [compound 895, 3-cyclobutyl-1-(4-fluorophenyl)-4-{4-[(2-methoxyethyl)(methyl)amino]piperidin-1-yl}-1H-pyrazolo[3,4-b]pyridine-6-carboxylic acid]
- % Activation (ΔF508-CFTR [1]; [3]): 178.2%
- EC50 (ΔF508-CFTR [1]; [3]): 1280 nM
- % Activation (ΔF508-CFTR [2]): 429.4%
- EC50 (ΔF508-CFTR [2]): 3330 nM

SMILES: COCCN1CCN(C2CCN(c3cc(C(=O)O)nc4c3c(C3CCC3)nn4-c3ccc(F)cc3)CC2)CC1 [compound 896, 3-cyclobutyl-1-(4-fluorophenyl)-4-{4-[4-(2-methoxyethyl)piperazin-1-yl]piperidin-1-yl}-1H-pyrazolo[3,4-b]pyridine-6-carboxylic acid]
- % Activation (ΔF508-CFTR [1]; [3]): 358.8%
- EC50 (ΔF508-CFTR [1]; [3]): 1630 nM
- % Activation (ΔF508-CFTR [2]): 513.5%
- EC50 (ΔF508-CFTR [2]): 700 nM

SMILES: O=C(O)c1cc(N2CCC(N3CCN(C4COC4)CC3)CC2)c2c(C3CCC3)nn(-c3ccc(F)cc3)c2n1 [compound 899, 3-cyclobutyl-1-(4-fluorophenyl)-4-{4-[4-(oxetan-3-yl)piperazin-1-yl]piperidin-1-yl}-1H-pyrazolo[3,4-b]pyridine-6-carboxylic acid]
- % Activation (ΔF508-CFTR [1]; [3]): 210.9%
- EC50 (ΔF508-CFTR [1]; [3]): 3100 nM
- % Activation (ΔF508-CFTR [2]): 351.9%
- EC50 (ΔF508-CFTR [2]): 309 nM

SMILES: CC(C)N1CCC2CN(c3cc(C(=O)O)nc4c3c(C3CCC3)nn4-c3ccc(F)cc3)CCC21 (stereo not shown) [compound 900, 3-cyclobutyl-1-(4-fluorophenyl)-4-[1-(propan-2-yl)octahydro-5H-pyrrolo[3,2-c]pyridin-5-yl]-1H-pyrazolo[3,4-b]pyridine-6-carboxylic acid]
- % Activation (ΔF508-CFTR [1]; [3]): 183.97%
- EC50 (ΔF508-CFTR [1]; [3]): 433 nM
- % Activation (ΔF508-CFTR [2]): 389.73%
- EC50 (ΔF508-CFTR [2]): 216 nM

SMILES: O=C(O)c1cc(N2CCC3C(CCN3C3CCC3)C2)c2c(C3CCC3)nn(-c3ccc(F)cc3)c2n1 (stereo not shown) [compound 901, 3-cyclobutyl-4-(1-cyclobutyloctahydro-5H-pyrrolo[3,2-c]pyridin-5-yl)-1-(4-fluorophenyl)-1H-pyrazolo[3,4-b]pyridine-6-carboxylic acid]
- % Activation (ΔF508-CFTR [1]; [3]): 199.2%
- EC50 (ΔF508-CFTR [1]; [3]): 87.6 nM
- % Activation (ΔF508-CFTR [2]): 432.3%
- EC50 (ΔF508-CFTR [2]): 151 nM

SMILES: O=C(O)c1cc(N2CCC3C(CCN3C3COC3)C2)c2c(C3CCC3)nn(-c3ccc(F)cc3)c2n1 (stereo not shown) [compound 902, 3-cyclobutyl-1-(4-fluorophenyl)-4-[1-(oxetan-3-yl)octahydro-5H-pyrrolo[3,2-c]pyridin-5-yl]-1H-pyrazolo[3,4-b]pyridine-6-carboxylic acid]
- % Activation (ΔF508-CFTR [1]; [3]): 193.9%
- EC50 (ΔF508-CFTR [1]; [3]): 230 nM
- % Activation (ΔF508-CFTR [2]): 411.75%
- EC50 (ΔF508-CFTR [2]): 114 nM

SMILES: O=C(O)c1cc(N2CCC3C(CCN3C3CCOCC3)C2)c2c(C3CCC3)nn(-c3ccc(F)cc3)c2n1 (stereo not shown) [compound 903, 3-cyclobutyl-1-(4-fluorophenyl)-4-[1-(oxan-4-yl)octahydro-5H-pyrrolo[3,2-c]pyridin-5-yl]-1H-pyrazolo[3,4-b]pyridine-6-carboxylic acid]
- % Activation (ΔF508-CFTR [1]; [3]): 275.8%
- EC50 (ΔF508-CFTR [1]; [3]): 331 nM
- % Activation (ΔF508-CFTR [2]): 480.55%
- EC50 (ΔF508-CFTR [2]): 108 nM

SMILES: O=C(O)c1cc(N2CCC3(CC2)CCN(C2COC2)CC3)c2c(C3CCC3)nn(-c3ccc(F)cc3)c2n1 [compound 904, 3-cyclobutyl-1-(4-fluorophenyl)-4-[9-(oxetan-3-yl)-3,9-diazaspiro[5.5]undecan-3-yl]-1H-pyrazolo[3,4-b]pyridine-6-carboxylic acid]
- % Activation (ΔF508-CFTR [1]; [3]): 200.1%
- EC50 (ΔF508-CFTR [1]; [3]): 237 nM
- % Activation (ΔF508-CFTR [2]): 372.85%
- EC50 (ΔF508-CFTR [2]): 102 nM

SMILES: O=C(O)c1cc(N2CCC(N3CCOCC3)CC2)c2c(C3CCC3)nn(-c3cc(F)cc(F)c3)c2n1 [compound 905, 3-cyclobutyl-1-(3,5-difluorophenyl)-4-[4-(morpholin-4-yl)piperidin-1-yl]-1H-pyrazolo[3,4-b]pyridine-6-carboxylic acid]
- % Activation (ΔF508-CFTR [1]; [3]): 278.8%
- EC50 (ΔF508-CFTR [1]; [3]): 362 nM
- % Activation (ΔF508-CFTR [2]): 466.55%
- EC50 (ΔF508-CFTR [2]): 145 nM

SMILES: O=C(O)c1cc(N2CCC(N3CCOCC3)CC2)c2c(C3CCC3)nn(-c3ccc4c(c3)OC(F)(F)O4)c2n1 [compound 906, 3-cyclobutyl-1-(2,2-difluoro-2H-1,3-benzodioxo1-5-yl)-4-[4-(morpholin-4-yl)piperidin-1-yl]-1H-pyrazolo[3,4-b]pyridine-6-carboxylic acid]
- % Activation (ΔF508-CFTR [1]; [3]): 276.92%
- EC50 (ΔF508-CFTR [1]; [3]): 146 nM
- % Activation (ΔF508-CFTR [2]): 485.34%
- EC50 (ΔF508-CFTR [2]): 72.8 nM

SMILES: O=C(O)c1cc(N2CCC(N3CCOCC3)CC2)c2c(C3CCC3)nn(-c3ccc(F)c(F)c3)c2n1 [compound 907, 3-cyclobutyl-1-(3,4-difluorophenyl)-4-[4-(morpholin-4-yl)piperidin-1-yl]-1H-pyrazolo[3,4-b]pyridine-6-carboxylic acid]
- % Activation (ΔF508-CFTR [1]; [3]): 270.7%
- EC50 (ΔF508-CFTR [1]; [3]): 260 nM
- % Activation (ΔF508-CFTR [2]): 483.65%
- EC50 (ΔF508-CFTR [2]): 183 nM

SMILES: COc1cc(-n2nc(C3CCC3)c3c(N4CCC(N5CCOCC5)CC4)cc(C(=O)O)nc32)ccc1F [compound 908, 3-cyclobutyl-1-(4-fluoro-3-methoxyphenyl)-4-[4-(morpholin-4-yl)piperidin-1-yl]-1H-pyrazolo[3,4-b]pyridine-6-carboxylic acid]
- % Activation (ΔF508-CFTR [1]; [3]): 220.2%
- EC50 (ΔF508-CFTR [1]; [3]): 256 nM
- % Activation (ΔF508-CFTR [2]): 486.75%
- EC50 (ΔF508-CFTR [2]): 171 nM

SMILES: O=C(O)c1cc(N2CCC(N3CCOCC3)CC2)c2c(C3CCC3)nn(-c3ccc(OC(F)(F)F)cc3)c2n1 [compound 909, 3-cyclobutyl-4-[4-(morpholin-4-yl)piperidin-1-yl]-1-[4-(trifluoromethoxy)phenyl]-1H-pyrazolo[3,4-b]pyridine-6-carboxylic acid]
- % Activation (ΔF508-CFTR [1]; [3]): 277.7%
- EC50 (ΔF508-CFTR [1]; [3]): 134 nM
- % Activation (ΔF508-CFTR [2]): 498.4%
- EC50 (ΔF508-CFTR [2]): 56.2 nM

SMILES: O=C(O)c1cc(N2CCC(N3CCOCC3)CC2)c2c(C3CCC3)nn(-c3ccc4c(c3)CC4)c2n1 [compound 911, 1-(bicyclo[4.2.0]octa-1,3,5-trien-3-yl)-3-cyclobutyl-4-[4-(morpholin-4-yl)piperidin-1-yl]-1H-pyrazolo[3,4-b]pyridine-6-carboxylic acid]
- % Activation (ΔF508-CFTR [1]; [3]): 222.45%
- EC50 (ΔF508-CFTR [1]; [3]): 190 nM
- % Activation (ΔF508-CFTR [2]): 405.9%
- EC50 (ΔF508-CFTR [2]): 74 nM

SMILES: COc1ccc(-n2nc(C3CCC3)c3c(N4CCC(N5CCOCC5)CC4)cc(C(=O)O)nc32)cc1F [compound 912, 3-cyclobutyl-1-(3-fluoro-4-methoxyphenyl)-4-[4-(morpholin-4-yl)piperidin-1-yl]-1H-pyrazolo[3,4-b]pyridine-6-carboxylic acid]
- % Activation (ΔF508-CFTR [1]; [3]): 212.4%
- EC50 (ΔF508-CFTR [1]; [3]): 720 nM
- % Activation (ΔF508-CFTR [2]): 397.9%
- EC50 (ΔF508-CFTR [2]): 267 nM

SMILES: COc1cc(F)cc(-n2nc(C3CCC3)c3c(N4CCC(N5CCOCC5)CC4)cc(C(=O)O)nc32)c1 [compound 913, 3-cyclobutyl-1-(3-fluoro-5-methoxyphenyl)-4-[4-(morpholin-4-yl)piperidin-1-yl]-1H-pyrazolo[3,4-b]pyridine-6-carboxylic acid]
- % Activation (ΔF508-CFTR [1]; [4]): 326.3%
- EC50 (ΔF508-CFTR [1]; [4]): 1150 nM
- % Activation (ΔF508-CFTR [2]): 531.4%
- EC50 (ΔF508-CFTR [2]): 163 nM

SMILES: O=C(O)c1cc(N2CCC(N3CCOCC3)CC2)c2c(C3CCC3)nn(-c3ccc(OC(F)F)cc3)c2n1 [compound 914, 3-cyclobutyl-1-[4-(difluoromethoxy)phenyl]-4-[4-(morpholin-4-yl)piperidin-1-yl]-1H-pyrazolo[3,4-b]pyridine-6-carboxylic acid]
- % Activation (ΔF508-CFTR [1]; [4]): 228.2%
- EC50 (ΔF508-CFTR [1]; [4]): 546 nM
- % Activation (ΔF508-CFTR [2]): 429.25%
- EC50 (ΔF508-CFTR [2]): 173 nM

SMILES: O=C(O)c1cc(N2CCC(N3CCOCC3)CC2)c2c(C3CCC3)nn(-c3cc(F)ccc3F)c2n1 [compound 916, 3-cyclobutyl-1-(2,5-difluorophenyl)-4-[4-(morpholin-4-yl)piperidin-1-yl]-1H-pyrazolo[3,4-b]pyridine-6-carboxylic acid]
- % Activation (ΔF508-CFTR [1]; [4]): 165.25%
- EC50 (ΔF508-CFTR [1]; [4]): 1670 nM
- % Activation (ΔF508-CFTR [2]): 362.05%
- EC50 (ΔF508-CFTR [2]): 1380 nM

SMILES: O=C(O)c1cc(N2CCC(N3CCOCC3)CC2)c2c(C3CCC3)nn(-c3ccc(OCCF)nc3)c2n1 [compound 917]
- % Activation (ΔF508-CFTR [1]; [4]): 116.67%
- EC50 (ΔF508-CFTR [1]; [4]): 1660 nM
- % Activation (ΔF508-CFTR [2]): 306.95%
- EC50 (ΔF508-CFTR [2]): 1670 nM

SMILES: O=C(O)c1cc(N2CCC(N3CCOCC3)CC2)c2c(C3CCC3)nn(-c3ccnc(OC4CCOCC4)c3)c2n1 [compound 918, 3-cyclobutyl-4-[4-(morpholin-4-yl)piperidin-1-yl]-1-{2-[(oxan-4-yl)oxy]pyridin-4-yl}-1H-pyrazolo[3,4-b]pyridine-6-carboxylic acid]
- % Activation (ΔF508-CFTR [1]; [4]): 149.75%
- EC50 (ΔF508-CFTR [1]; [4]): 712 nM
- % Activation (ΔF508-CFTR [2]): 352.1%
- EC50 (ΔF508-CFTR [2]): 479 nM

SMILES: O=C(O)c1cc(N2CCC(N3CCOCC3)CC2)c2c(C3CCC3)nn(-c3ccnc(OCC4CCOCC4)c3)c2n1 [compound 919, 3-cyclobutyl-4-[4-(morpholin-4-yl)piperidin-1-yl]-1-{2-[(oxan-4-yl)methoxy]pyridin-4-yl}-1H-pyrazolo[3,4-b]pyridine-6-carboxylic acid]
- % Activation (ΔF508-CFTR [1]; [4]): 198.2%
- EC50 (ΔF508-CFTR [1]; [4]): 490 nM
- % Activation (ΔF508-CFTR [2]): 416.35%
- EC50 (ΔF508-CFTR [2]): 256 nM

SMILES: CC(C)Oc1nn(C2CCCCC2)c2nc(C(=O)O)cc(-c3ccc(C#N)cc3)c12 [compound 923, 4-(4-cyanophenyl)-1-cyclohexyl-3-[(propan-2-yl)oxy]-1H-pyrazolo[3,4-b]pyridine-6-carboxylic acid]
- % Activation (ΔF508-CFTR [1]; [4]): 60.466%
- EC50 (ΔF508-CFTR [1]; [4]): 355 nM
- % Activation (ΔF508-CFTR [2]): 263%
- EC50 (ΔF508-CFTR [2]): 380 nM
